# Values of other authors in US6475518B1, “Methods and compositions for treatment of disorders associated with chlamydia and similar bacterial infection” (priority 1998, dated 2002).
# Experiments:
# [1] = tested on: C. pneumoniae; details: Gupta S, et al., Circulation 1997
# [2] = tested on: C. pneumoniae; details: Gurfinkel E, et al., Lancet 1997; limited numbers, no prolonged follow-up yet
SMILES,Clinical benefit of monotherapy [1],Clinical benefit of sole therapy [2]
CC[C@H]1OC(=O)[C@H](C)[C@@H](O[C@H]2C[C@@](C)(OC)[C@@H](O)[C@H](C)O2)[C@H](C)[C@@H](O[C@@H]2O[C@H](C)C[C@H](N(C)C)[C@H]2O)[C@](C)(O)C[C@@H](C)CN(C)[C@H](C)[C@@H](O)[C@]1(C)O [azithromycin],the benefit was not sustained after initial therapy,
CC[C@H]1OC(=O)[C@H](C)[C@@H](O[C@H]2C[C@@](C)(OC)[C@@H](O)[C@H](C)O2)[C@H](C)[C@@H](O[C@@H]2O[C@H](C)C[C@H](N(C)C)[C@H]2O)[C@](C)(O)C[C@@H](C)/C(=N\OCOCCOC)[C@H](C)[C@@H](O)[C@]1(C)O [roxithromycin],,a benefit was described
